According to patent US6710049B2, “Azole compounds as anti-fungal agents” (Ranbaxy Laboratories Limited, priority 2000, dated 2004):

Key:
A fumigatus PGI - 1023 = assay: MIC determination (NCCLS broth method); type: cell-based, Aspergillus fumigatus
Source text: (§1) The in-vitro evaluation of the antifungal activity of the compounds can be performed by determining the minimum inhibitory concentration (MIC) as shown in Table 1 which is the concentration of the test compound in Rosewell Park Memorial Institute (RPMI) 1640 liquid medium buffered with 3-(Morpholino)propanesulphonic acid (MOPS) to pH 7, at which there is significant inhibition of the particular fungi. In practice the National Committee for Clinical Laboratory Standard (NCCLS) M27A document for Candida and Cryptococcus and M38P for Aspergillus was used to determine the MIC against yeast and filamentous fungi with suitable modifications for dermatophytes to other filamentous fungi. Three quality control strains were included each time the MIC were determined and readings recorded only when the Quality Control results fell into the acceptable range. After MIC results had been recorded, 100 μl from each of the well showing no growth was spread over Sabouraud Dextrose Agar (SDA) to determine the minimum fungicidal concentration (MFC) as shown in Table 2.

A fumigatus I - 1011 = assay: MIC determination (NCCLS broth method); type: cell-based, Aspergillus fumigatus
Source text: as §1

A fumigatus L - 1034 = assay: MIC determination (NCCLS broth method); type: cell-based, Aspergillus fumigatus
Source text: as §1

A fumigatus 1008 = assay: MIC determination (NCCLS broth method); type: cell-based, Aspergillus fumigatus
Source text: as §1

A fumigatus J - 1032 = assay: MIC determination (NCCLS broth method); type: cell-based, Aspergillus fumigatus
Source text: as §1

A fumigatus II - 1012 = assay: MIC determination (NCCLS broth method); type: cell-based, Aspergillus fumigatus
Source text: as §1

A fumigatus K - 1033 = assay: MIC determination (NCCLS broth method); type: cell-based, Aspergillus fumigatus
Source text: as §1

A fumigatus SI-1 - 1019 [1] = assay: MIC determination (NCCLS broth method); type: cell-based, Aspergillus fumigatus
Source text: as §1

A flavus P3 - 1041 = assay: MFC determination (subculture on Sabouraud Dextrose Agar); type: cell-based
Source text: as §1

Penicillium 2548 = assay: as above; type: cell-based
Source text: as §1

Penicillium I - 1049 = assay: as above; type: cell-based
Source text: as §1

Penicillium 31620 = assay: as above; type: cell-based
Source text: as §1

A niger E5 - 1047 = assay: as above; type: cell-based
Source text: as §1

Penicillium 1641 = assay: as above; type: cell-based
Source text: as §1

C parapsilosis 22019 = assay: as above; type: cell-based
Source text: as §1

C krusei 6258 = assay: as above; type: cell-based
Source text: as §1

A flavus E3 - 1044 = assay: as above; type: cell-based
Source text: as §1

A flavus P2 - 1045 = assay: as above; type: cell-based
Source text: as §1

Rhizopus 1052 = assay: as above; type: cell-based
Source text: as §1

Alternaria 1051 = assay: as above; type: cell-based
Source text: as §1

Mucor (Ceylon) = assay: as above; type: cell-based
Source text: as §1

Penicillium 191 = assay: as above; type: cell-based
Source text: as §1

Rhizopus (Ceylon) = assay: as above; type: cell-based
Source text: as §1

Penicillium H - 1048 = assay: as above; type: cell-based
Source text: as §1

Penicillium 2306 = assay: as above; type: cell-based
Source text: as §1

A niger P1 - 1046 = assay: as above; type: cell-based
Source text: as §1

A flavus E4 - 1042 = assay: as above; type: cell-based
Source text: as §1

P variotii 22319 = assay: as above; type: cell-based, Paecillomyces variotii
Source text: as §1

A fumigatus SI-1 - 1019 [2] = assay: as above; type: cell-based, Aspergillus fumigatus
Summary of the method: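 Broth dilution per NCCLS M27A (yeasts) or M38P (filamentous fungi) in RPMI 1640 buffered with MOPS to pH 7; MIC taken as the concentration giving significant fungal inhibition, recorded only when three QC strains were within range. MFC determined by subculturing no-growth wells onto Sabouraud Dextrose Agar.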

Fusarium (Ceylon) = assay: as above; type: cell-based
Source text: as §1

Fusarium 29600 = assay: as above; type: cell-based; conditions: Fusarium 29600
Source text: as §1

Fusarium 18270 = assay: as above; type: cell-based; conditions: Fusarium 18270
Source text: as §1

SMILES	Minimum Inhibitory Concentration (MIC) (A fumigatus PGI - 1023)	Minimum Inhibitory Concentration (MIC) (A fumigatus I - 1011)	Minimum Inhibitory Concentration (MIC) (A fumigatus L - 1034)	Minimum Inhibitory Concentration (MIC) (A fumigatus 1008)	Minimum Inhibitory Concentration (MIC) (A fumigatus J - 1032)	Minimum Inhibitory Concentration (MIC) (A fumigatus II - 1012)	Minimum Inhibitory Concentration (MIC) (A fumigatus K - 1033)	Minimum Inhibitory Concentration (MIC) (A fumigatus SI-1 - 1019 [1])	Minimum Fungicidal Concentration (MFC) (Penicillium 2548)	Minimum Fungicidal Concentration (MFC) (Penicillium I - 1049)	Minimum Fungicidal Concentration (MFC) (Penicillium 31620)	Minimum Fungicidal Concentration (MFC) (A niger E5 - 1047)	Minimum Fungicidal Concentration (MFC) (Penicillium 1641)	Minimum Fungicidal Concentration (MFC) (C parapsilosis 22019)	Minimum Fungicidal Concentration (MFC) (C krusei 6258)	Minimum Fungicidal Concentration (MFC) (A flavus E3 - 1044)	Minimum Fungicidal Concentration (MFC) (A flavus P2 - 1045)	Minimum Fungicidal Concentration (MFC) (Rhizopus 1052)	Minimum Fungicidal Concentration (MFC) (Alternaria 1051)	Minimum Fungicidal Concentration (MFC) (Mucor (Ceylon))	further results
C[C@@H]1[C@H](O)[C@@H](C)/C=C/C=C/C=C/C=C/C=C/C=C/C=C/[C@H](O[C@@H]2O[C@H](C)[C@@H](O)[C@H](N)[C@@H]2O)C[C@@H]2O[C@](O)(C[C@@H](O)C[C@@H](O)[C@H](O)CC[C@@H](O)C[C@@H](O)CC(=O)O[C@H]1C)C[C@H](O)[C@H]2C(=O)O [Amphotericin-B, Amphotericin B]	0.125 µg/mL	0.25 µg/mL	0.25 µg/mL	0.25 µg/mL	0.25 µg/mL	0.125 µg/mL	0.125 µg/mL	0.5 µg/mL	4 µg/mL	4 µg/mL	0.25 µg/mL	0.25 µg/mL	16 µg/mL	32 µg/mL	1 µg/mL	0.5 µg/mL	1 µg/mL	8 µg/mL	>128 µg/mL	1 µg/mL	Minimum Fungicidal Concentration (MFC) (A flavus P3 - 1041): 0.5 µg/mL; Minimum Fungicidal Concentration (MFC) (Penicillium 191): 2 µg/mL; Minimum Fungicidal Concentration (MFC) (Rhizopus (Ceylon)): 64 µg/mL; Minimum Fungicidal Concentration (MFC) (Penicillium H - 1048): 2 µg/mL; Minimum Fungicidal Concentration (MFC) (Penicillium 2306): 0.5 µg/mL; Minimum Fungicidal Concentration (MFC) (A niger P1 - 1046): 0.25 µg/mL; Minimum Fungicidal Concentration (MFC) (A flavus E4 - 1042): 0.125 µg/mL; Minimum Fungicidal Concentration (MFC) (P variotii 22319): 2 µg/mL; Minimum Fungicidal Concentration (MFC) (A fumigatus SI-1 - 1019 [2]): 2 µg/mL
C[C@@H](n1ncn(-c2ccc(N3CCN(c4ccc(Cl)cc4)CC3)cc2)c1=S)[C@](O)(Cn1cncn1)c1ccc(F)cc1F [Compound No. 1, 2-{[1R,2R]-2-(2,4-Difluorophenyl)-2-hydroxy-1-methyl-3-(1H-1,2,4-triazole-1-yl)propyl}-4-{4-[4-(4-chlorophenyl)-1-piperizinyl]phenyl}-3-(2H,4H)-1,2,4-thiotriazolone]	0.016 µg/mL	0.016 µg/mL	0.008 µg/mL	0.016 µg/mL	0.008 µg/mL	0.008 µg/mL	0.008 µg/mL	0.016 µg/mL	0.125 µg/mL	1 µg/mL	0.125 µg/mL	0.06 µg/mL	0.25 µg/mL	0.016 µg/mL	0.016 µg/mL	0.03 µg/mL	0.03 µg/mL	0.03 µg/mL	0.06 µg/mL	1 µg/mL	Minimum Fungicidal Concentration (MFC) (A flavus P3 - 1041): 0.06 µg/mL; Minimum Fungicidal Concentration (MFC) (Fusarium (Ceylon)): 32 µg/mL; Minimum Fungicidal Concentration (MFC) (Fusarium 29600): >128 µg/mL; Minimum Fungicidal Concentration (MFC) (Penicillium 191): 0.125 µg/mL; Minimum Fungicidal Concentration (MFC) (Rhizopus (Ceylon)): 0.5 µg/mL; Minimum Fungicidal Concentration (MFC) (Penicillium H - 1048): 4 µg/mL; Minimum Fungicidal Concentration (MFC) (Penicillium 2306): 0.06 µg/mL; Minimum Fungicidal Concentration (MFC) (A niger P1 - 1046): 0.06 µg/mL; Minimum Fungicidal Concentration (MFC) (Fusarium 18270): >128 µg/mL; Minimum Fungicidal Concentration (MFC) (A flavus E4 - 1042): 0.03 µg/mL; Minimum Fungicidal Concentration (MFC) (P variotii 22319): 0.06 µg/mL; Minimum Fungicidal Concentration (MFC) (A fumigatus SI-1 - 1019 [2]): 0.03 µg/mL
C[C@@H](n1ncn(-c2ccc(OCC(F)(F)C(F)F)cc2)c1=O)[C@](O)(Cn1cncn1)c1ccc(F)cc1F [TAK 187, 2-[(1R,2R)-2-(2,4-difluorophenyl)-2-hydroxy-1-methyl-3-(1H-1,2,4-triazol-1-yl)propyl]-4-(2′,2′,3′,3′-tetraflouropropoxyphenyl)-3(2H,4H)-1,2,4-triazolone]	8 µg/mL	4 µg/mL	4 µg/mL	4 µg/mL	4 µg/mL	8 µg/mL	8 µg/mL	2 µg/mL	16 µg/mL	128 µg/mL	16 µg/mL	2 µg/mL	32 µg/mL	0.03 µg/mL	64 µg/mL	8 µg/mL	32 µg/mL	32 µg/mL	16 µg/mL	>128 µg/mL	Minimum Fungicidal Concentration (MFC) (Penicillium 191): 16 µg/mL; Minimum Fungicidal Concentration (MFC) (Rhizopus (Ceylon)): >128 µg/mL; Minimum Fungicidal Concentration (MFC) (Penicillium H - 1048): >128 µg/mL; Minimum Fungicidal Concentration (MFC) (Penicillium 2306): 16 µg/mL; Minimum Fungicidal Concentration (MFC) (A niger P1 - 1046): 0.5 µg/mL; Minimum Fungicidal Concentration (MFC) (Fusarium 18270): 32 µg/mL; Minimum Fungicidal Concentration (MFC) (P variotii 22319): 32 µg/mL; Minimum Fungicidal Concentration (MFC) (A fumigatus SI-1 - 1019 [2]): 32 µg/mL
